Measurements: patent publication US20150191484A1, “NOVEL COMPOUNDS HAVING A TETRACYCLIC IRIDOID SKELTON AND AN ANTI-TRYPANOSOMAL AGENT COMPRISING THE SAME AS AN ACTIVE INGREDIENT” (NATIONAL UNIVERSITY CORPORATION TOKYO MEDICAL AND DENTAL …, priority 2014, published 2015)

Key:
[1] = MTT cytotoxicity assay, HCT-15; format: cell-based, human; conditions: human, HCT-15 colon cancer cells; HCT-15 colon cancer, 48 h, MTT
Description: (§1) The cytotoxic activity of natural products against mammalian cells is an important point in the search for active compounds with biological activity. […] In order to confirm the selective and potent anti-trypanosomal activity of ML-2-2 and ML-2-3, we examined their cytotoxicity in a panel of human cell lines including two human fibroblastic and 8 human cancer-derived cell lines. Cells were seeded in 96-well microplates and incubated with ML-2-2 and ML-2-3 for 48 h at 37° C. in a 5% CO2 humidified incubator. The viabilities of cells were determined with the MTT (3-(4,5-dimethylthiazol-2-yl)-2-5-diphenyltetrazolium bromide) assay. The selectivity index (SI) was determined using the following equation: IC50 against human cells/IC50 against T. brucei. The IC50 values of ML-2-3 were higher than those of ML-2-2 in all the cell lines examined. […] The SI of ML-2-2 indicates values below 1.00 in most cell lines. On the other hand, SI values of ML-2-3 were much higher than those of ML-2-2 in all tested cell lines.

HCT-15 (colon cancer) = assay: MTT cytotoxicity assay, HCT-15; format: cell-based, human
Description: as §1

[2] = MTT cytotoxicity assay, KATOIII; format: cell-based, human; conditions: human, KATOIII stomach cancer cells; KATOIII stomach cancer, 48 h, MTT
Description: as §1

KATOIII (stomach cancer) = assay: MTT cytotoxicity assay, KATOIII; format: cell-based, human; conditions: IC50 against KATOIII / IC50 against T. brucei
Description: as §1

[3] = MTT cytotoxicity assay, Jurkat; format: cell-based, human; conditions: human, Jurkat leukemia cells; Jurkat leukemia, 48 h, MTT
Description: as §1

Jurkat (leukemia) = assay: MTT cytotoxicity assay, Jurkat; format: cell-based, human; conditions: IC50 against Jurkat / IC50 against T. brucei
Description: as §1

[4] = MTT cytotoxicity assay, HL-60; format: cell-based, human; conditions: human, HL-60 leukemia cells; HL-60 leukemia, 48 h, MTT
Description: as §1

HL-60 (leukemia) = assay: MTT cytotoxicity assay, HL-60; format: cell-based, human; conditions: IC50 against HL-60 / IC50 against T. brucei
Description: as §1

[5] = MTT cytotoxicity assay, THP-1; format: cell-based, human; conditions: human, THP-1 leukemia cells; THP-1 leukemia, 48 h, MTT
Description: as §1

THP-1 (leukemia) = assay: MTT cytotoxicity assay, THP-1; format: cell-based, human; conditions: IC50 against THP-1 / IC50 against T. brucei
Description: as §1

Trypanosoma cells = assay: Immunohistochemistry / immuno-fluorescence analysis (anti-α tubulin, DAPI); format: cell-based, Trypanosoma brucei brucei; conditions: 15 μM (four times of IC50)
Description: The GUTat 3.1 strain of the bloodstream forms of T. b. brucei parasites was used for this study. Parasites were cultured in vitro according to the conditions established by Yabu et al, 1998.
Parasites were used when they reached a confluent concentration of 1×10^6 parasites/ml. Estimation of parasitemia was done with the Neubauer's counting chamber. Parasites were diluted to a concentration of 3×10^5 parasites/ml with HMI-9 medium and used for the various experiments.
Immunohistochemistry was performed to detect any morphological or phenotypic changes which may be caused by extracts/compounds with trypanocidal effect. The initial steps of immunohistochemistry are the same as that for the Cell Cycle Assay. After fixing the parasites at −20° C. for an hour, 500 μl of the fixed parasites were transferred to an 8-chamber slide. The parasites were incubated at 4° C. overnight to allow the fixed parasites to adhere to the slide surface. The 70% EtOH was then discarded completely. 500 μl of PBS was added to each chamber and incubated for 5 min, after which PBS was discarded. The parasites were further washed with 500 μl of PBST (0.01% Triton X 100 in PBS) for 5 min and the washing solution discarded. 500 μl of blocking reagent (3% BSA in PBST) was added to the chamber and incubated for 30 min at room temperature, after which the blocking reagent was discarded. Each chamber was filled with 500 μl Anti-α tubulin antibody and incubated for 1 hour. The antibody was then discarded and the parasites were incubated with 500 μl of DAPI (5 μg/ml DAPI in PBS) for 10 min in the dark. The wells were washed twice with 500 μl of PBS and once with 500 μl of PBST. The 8-chamber block was detached from the slide and a few drops of parmafluor mounting reagent were put on the slide. The slide was covered carefully with a cover slip. The covered slide was allowed to dry in the dark and the edge of the cover slip sealed with clear nail varnish. The slide was observed under the Olympus fluorescent microscope.

various human cells = assay: MTT cytotoxicity, panel of human cell lines (summary); format: cell-based; conditions: IC50 against human cells / IC50 against Trypanosoma
From the text: ML-2-3 has low cytotoxicity on mammalian cells. The cytotoxicity of ML-2-3 is very low compared to the cytotoxicity of ML-2-2. The cytotoxicity of ML-2-2 and ML-2-3 on mammalian cells can be compared as IC50 value. The usefulness of the compounds for a therapeutic agent for mammals including humans can be compared by a selectivity index (SI). For a compound to be accepted as a useful therapeutic agent for mammals means that the compound should have high anti-trypanosomal activity but low cytotoxicity on mammals. The selectivity index (SI) is represented by an equation: IC50 of cytotoxicity on mammalian cells/IC50 of anti-trypanosomal activity. In particular, it is represented by an equation: IC50 against human cells/IC50 against Trypanosoma such as Trypanosoma brucei. […] IC50 (μM) of ML-2-3 against HF-19 and HCT-15 is more than 50, which means that ML2-3 is non-toxic at the highest assayed dose in HF-19 and HCT-15. […]
The cytotoxic activity of natural products against mammalian cells is an important point in the search for active compounds with biological activity. […] The viabilities of cells were determined with the MTT (3-(4,5-dimethylthiazol-2-yl)-2-5-diphenyltetrazolium bromide) assay. The selectivity index (SI) was determined using the following equation: IC50 against human cells/IC50 against T. brucei. […]

Compound: COc1cc(/C=C2/C(=O)O[C@]34C=C[C@@H]5C(C(=O)O)=CO[C@H](O[C@@H]23)[C@@H]54)ccc1O [ML-2-3, (3aS,4aR,4a^1S,7aS,9aS,3E)-3-(4-hydroxy-3-methoxybenzylidene)-2-oxo-2,3,3a,4a,4a^1,7a-hexahydro-1,4,5-trioxadicyclopenta[a,hi]indene-7-carboxylic acid]
- IC50 at 48 h [1]: > 50 µM
- cytotoxicity (in words) (HCT-15 (colon cancer); HCT-15, highest assayed dose): non-toxic at the highest assayed doses
- SI (selectivity index) (HCT-15 (colon cancer); IC50 against HCT-15 / IC50 against T. brucei): >13.33
- IC50 at 48 h [2]: 24.8 µM
- SI (selectivity index) (KATOIII (stomach cancer)): 6.62
- IC50 at 48 h [3]: 12.4 µM
- SI (selectivity index) (Jurkat (leukemia)): 3.31
- IC50 at 48 h [4]: 25.5 µM
- SI (selectivity index) (HL-60 (leukemia)): 6.81
- IC50 at 48 h [5]: 15.4 µM
- SI (selectivity index) (THP-1 (leukemia)): 4.11
- expression of α-tubulin (Trypanosoma cells): significantly suppressed
- flagellum phenotype (Trypanosoma cells): no flagellum phenotype
- nuclear fragmentation (Trypanosoma cells): clearly induced the fragmented nuclei
- selectivity index (SI), range over the human cell lines (various human cells): ≥ 3.2 to more than 13
